These results are taken from patent publication US20240132525A1, “BORON […], CO[…], METHODS AND USES THEREOF” (priority 2022, published 2024).

Data set [1] deals with JAK1 (Homo sapiens (Human), UniProt P23458). Nature of the data set: Biochemical kinase assay (33P-ATP filter-binding), JAK1. Particulars: read-out: IC50 JAK1. The source says: (§1) Biochemical Kinase Assay Protocol (JAK)
(§2) Reaction Procedure: • 1. […] Detected kinase activity by filter-binding method.

The target in data set [2] is JAK2 (Homo sapiens (Human), UniProt O60674). Nature of the data set: Biochemical kinase assay (33P-ATP filter-binding), JAK2. The settings on record: read-out: IC50 JAK2.
JAK2, sequence (O60674 whole entry, species assumed): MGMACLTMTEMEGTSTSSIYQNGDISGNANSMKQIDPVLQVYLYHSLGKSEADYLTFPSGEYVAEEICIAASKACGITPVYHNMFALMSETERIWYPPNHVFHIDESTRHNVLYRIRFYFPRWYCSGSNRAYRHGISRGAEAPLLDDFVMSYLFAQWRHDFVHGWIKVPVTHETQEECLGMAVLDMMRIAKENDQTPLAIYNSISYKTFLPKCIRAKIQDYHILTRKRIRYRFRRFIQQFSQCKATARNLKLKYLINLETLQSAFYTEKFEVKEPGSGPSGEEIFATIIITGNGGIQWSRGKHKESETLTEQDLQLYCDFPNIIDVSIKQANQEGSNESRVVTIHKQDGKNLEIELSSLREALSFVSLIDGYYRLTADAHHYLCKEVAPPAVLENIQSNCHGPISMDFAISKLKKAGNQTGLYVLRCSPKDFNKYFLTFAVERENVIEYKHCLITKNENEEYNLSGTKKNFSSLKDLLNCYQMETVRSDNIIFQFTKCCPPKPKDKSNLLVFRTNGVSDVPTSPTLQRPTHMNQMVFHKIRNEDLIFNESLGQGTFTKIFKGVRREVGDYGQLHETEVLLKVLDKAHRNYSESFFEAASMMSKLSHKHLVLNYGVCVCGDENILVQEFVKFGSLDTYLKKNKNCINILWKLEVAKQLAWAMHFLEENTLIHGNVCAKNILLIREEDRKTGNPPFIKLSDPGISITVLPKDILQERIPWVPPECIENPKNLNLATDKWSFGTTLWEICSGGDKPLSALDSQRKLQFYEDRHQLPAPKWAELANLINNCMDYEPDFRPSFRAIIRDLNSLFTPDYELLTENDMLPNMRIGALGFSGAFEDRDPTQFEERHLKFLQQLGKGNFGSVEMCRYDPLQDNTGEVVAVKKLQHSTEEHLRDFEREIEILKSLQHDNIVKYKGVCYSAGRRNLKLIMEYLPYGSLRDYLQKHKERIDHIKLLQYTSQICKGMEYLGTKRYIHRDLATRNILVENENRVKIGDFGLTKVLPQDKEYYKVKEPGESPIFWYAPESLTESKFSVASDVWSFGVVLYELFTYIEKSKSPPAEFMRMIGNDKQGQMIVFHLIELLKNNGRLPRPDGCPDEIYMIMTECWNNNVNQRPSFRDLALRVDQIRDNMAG
From the text: as §1, §2

The target of data set [3] is PDE4B (Homo sapiens (Human), UniProt Q07343). Put plainly: PDE4B inhibition. It is filed as biochemical.
PDE4B, sequence (Q07343 whole entry, species assumed): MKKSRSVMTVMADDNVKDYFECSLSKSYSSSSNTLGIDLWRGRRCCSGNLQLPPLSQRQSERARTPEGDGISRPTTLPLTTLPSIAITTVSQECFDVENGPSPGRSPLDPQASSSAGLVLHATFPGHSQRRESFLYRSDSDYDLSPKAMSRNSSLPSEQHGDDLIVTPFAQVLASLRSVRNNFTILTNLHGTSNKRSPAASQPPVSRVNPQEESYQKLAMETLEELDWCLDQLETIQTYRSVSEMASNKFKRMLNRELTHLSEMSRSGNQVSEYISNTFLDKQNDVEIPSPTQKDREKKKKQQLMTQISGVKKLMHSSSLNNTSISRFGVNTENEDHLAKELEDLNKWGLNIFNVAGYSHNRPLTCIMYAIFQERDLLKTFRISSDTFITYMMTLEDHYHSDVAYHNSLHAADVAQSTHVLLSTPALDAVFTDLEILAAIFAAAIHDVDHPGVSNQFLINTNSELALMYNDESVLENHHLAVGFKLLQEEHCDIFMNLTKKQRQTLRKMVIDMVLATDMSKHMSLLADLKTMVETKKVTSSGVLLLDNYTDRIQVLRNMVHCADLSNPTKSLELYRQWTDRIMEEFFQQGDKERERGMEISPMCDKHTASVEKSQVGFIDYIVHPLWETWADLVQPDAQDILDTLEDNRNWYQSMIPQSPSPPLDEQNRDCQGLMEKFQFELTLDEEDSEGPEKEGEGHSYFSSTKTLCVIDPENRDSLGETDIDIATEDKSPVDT
For data set [4], the system named is IL-4/pSTAT6. Put plainly: Cytokine function assay IL-4/pSTAT6 in PBMC. Format: cell-based. Here is the method:
(§3) Cytokine Function Assay Protocols for IL-4/pSTAT6 and GM-CSF/pSTAT5
IL-4/pSTAT6: • PBMC from a healthy donor was plated onto a 96 w plate. Compound was added and incubated for 1 hour (at 37° C.). After 1 hour, cells were stimulated with IL-4 for 15 minutes. Cells were fixed and stained with anti-pSTAT6 antibody. After staining, cells were read on a Beckman-Coulter CytoFLEX.

The subject of data set [5] is GM-CSF/pSTAT5. Nature of the data set: Cytokine function assay GM-CSF/pSTAT5 in lysed whole blood cells. It is filed as cell-based. Particulars: Table 3b, comparator compounds; read-out: IC50 GM-CSF. The method, then: as §3
GM-CSF/pSTAT5: • Whole blood from a healthy donor was lysed to remove red blood cells. Cells were plated onto a 96 well plate. Compound was added and incubated for 1 hour (at 37° C.). After 1 hour, cells were stimulated with GM-CSF for 15 minutes. Cells were fixed and stained with anti-pSTAT5 antibody. After staining, cells were read on a Beckman-Coulter CytoFLEX.

Data set [6] is described as follows: Dog LM (liver microsome) assay. Format: in vitro ADME. Particulars: predicted clearance as percent of liver blood flow. Here is the method:
Dog LM (Liver Microsome) Assay
The metabolic degradation of the test compound is assayed at 37° C. with pooled liver microsomes from dogs (Beagle). The final incubation volume of 100 μl per time point contains TRIS buffer pH 7.6 at RT (0.1 M), magnesium chloride (5 mM), microsomal protein (1 mg/ml) and the test compound at a final concentration of 1 μM. Following a short preincubation period at 37° C., the reactions were initiated by addition of beta-nicotinamide adenine dinucleotide phosphate, reduced form (NADPH, 1 mM) and terminated by transferring an aliquot into solvent after different time points. Additionally, the NADPH-independent degradation was monitored in incubations without NADPH, terminated at the last time point. The [%] remaining test compound after NADPH independent incubation is reflected by the parameter c (control) (metabolic stability). The quenched incubations are pelleted by centrifugation (10000 g, 5 min). An aliquot of the supernatant is assayed by LC-MS/MS for the amount of parent compound. The half-life (t½ INVITRO) is determined by the slope of the semilogarithmic plot of the concentration-time profile. The intrinsic clearance (CL_[…]) is calculated by considering the amount of protein in the incubation: CL_[…] [μl/min/mg protein]=(Ln 2/(half-life [min]*protein content [mg/ml]))*1000. For better across species comparison the predicted clearance is expressed as percent of the liver blood flow [% QH] in the individual species. In general, high stability (corresponding to low % QH) of the compounds across species is desired.

[7] abbreviates: Table 3b, comparator compounds, read-out: IC50 IL-4.
[8] abbreviates: PBMC, read-out: IC50 IL-4, Table 3a.
Setting [9] is: Table 3a, 1 μM, 1 mg/ml microsomal protein.

The structures appear in SMILES notation. Read-outs that look alike come from different tables or passages of the source.

JAK1, sequence (P23458 whole entry, species assumed): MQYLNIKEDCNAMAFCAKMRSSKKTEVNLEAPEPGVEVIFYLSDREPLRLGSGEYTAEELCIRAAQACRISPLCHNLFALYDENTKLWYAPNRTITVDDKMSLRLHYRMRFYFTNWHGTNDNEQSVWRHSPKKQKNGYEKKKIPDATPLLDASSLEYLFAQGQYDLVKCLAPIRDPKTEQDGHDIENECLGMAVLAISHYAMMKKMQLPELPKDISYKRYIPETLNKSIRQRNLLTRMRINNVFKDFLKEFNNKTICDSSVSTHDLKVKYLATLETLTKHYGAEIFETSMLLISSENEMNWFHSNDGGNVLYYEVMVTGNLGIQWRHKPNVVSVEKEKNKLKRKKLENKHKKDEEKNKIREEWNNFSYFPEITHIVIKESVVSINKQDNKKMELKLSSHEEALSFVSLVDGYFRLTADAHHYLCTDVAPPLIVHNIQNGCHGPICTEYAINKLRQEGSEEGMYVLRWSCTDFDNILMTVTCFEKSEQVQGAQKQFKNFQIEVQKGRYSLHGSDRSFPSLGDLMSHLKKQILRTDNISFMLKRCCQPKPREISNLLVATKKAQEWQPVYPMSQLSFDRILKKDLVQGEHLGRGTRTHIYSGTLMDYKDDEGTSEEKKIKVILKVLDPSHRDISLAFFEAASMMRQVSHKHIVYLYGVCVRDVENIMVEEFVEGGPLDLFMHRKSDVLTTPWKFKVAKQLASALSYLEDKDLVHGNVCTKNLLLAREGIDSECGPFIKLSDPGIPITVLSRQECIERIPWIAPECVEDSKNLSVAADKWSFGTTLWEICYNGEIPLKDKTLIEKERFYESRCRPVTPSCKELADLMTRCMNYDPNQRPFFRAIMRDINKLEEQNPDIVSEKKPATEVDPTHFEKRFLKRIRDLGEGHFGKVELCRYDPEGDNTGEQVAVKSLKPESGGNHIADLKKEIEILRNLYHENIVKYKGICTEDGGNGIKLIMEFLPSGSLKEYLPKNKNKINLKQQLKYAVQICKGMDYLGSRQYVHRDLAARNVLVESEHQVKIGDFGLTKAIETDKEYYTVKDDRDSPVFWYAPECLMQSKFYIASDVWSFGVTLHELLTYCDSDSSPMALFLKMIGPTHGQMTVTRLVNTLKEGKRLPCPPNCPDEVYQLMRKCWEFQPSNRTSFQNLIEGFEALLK

On to `Cc1cnc(Nc2ccc3c(c2)COB3O)nc1NC1CCCC1` [Example C006], for which the IC50 – broadly, the concentration needed to halve the response being measured – was 6.5 nM in data set [1] (Table 3b, comparator compounds); 154 nM in data set [2] (Table 3b, comparator compounds); 114 nM in data set [3] (Table 3b, comparator compounds); 293 nM in data set [4] (setting [7]); 270 nM in data set [5]. The “Inhibition PDE4B @ 1 μM” value in data set [3] (Table 3b, comparator compounds) is reported as 86%. The “Dog LM QH” value in data set [6] (Table 3b, comparator compounds) is reported as over 86.6%.
As for `CCC(CC)Nc1nc(Nc2cc(Cl)c3c(c2)COB3O)ncc1C` [Example C002], the IC50 came to 1.1 nM in data set [1] (Table 3b, comparator compounds); 95.7 nM in data set [2] (Table 3b, comparator compounds); 155 nM in data set [4] (setting [7]); 10000 nM in data set [5]. For the same molecule, in data set [6] (Table 3b, comparator compounds), the “Dog LM QH” value is reported as under 19.9%.
For the molecule `Cc1cnc(Nc2cc(F)c3c(c2)C=CB(O)O3)nc1N[C@@H]1COCC[C@H]1C#N` (single isomer, unassigned) [Example 036a, (trans)-3-((2-((8-fluoro-2-hydroxy-2H-benzo[e][1,2]oxaborinin-6-yl)amino)-5-methylpyrimidin-4-yl)amino)tetrahydro-2H-pyran-4-carbonitrile], the IC50 came out at 0.3 nM in data set [1] (Table 3a), 4.8 nM in data set [2] (Table 3a) and 158 nM in data set [4] (setting [8]). For the same molecule, the “Dog LM QH” value in data set [6] (setting [9]) is given as 33.1%.
Turning to `OB1OCc2cc(Nc3ncc(F)c(NC4CCCCC4)n3)ccc21` [Example C017], the IC50 in data set [1] (Table 3b, comparator compounds) was 11.2 nM; in data set [2] (Table 3b, comparator compounds), 1850 nM; in data set [4] (setting [7]) it was 1640 nM; in data set [5] it was 10000 nM. In addition, in data set [6] (Table 3b, comparator compounds), the “Dog LM QH” value is recorded as 53.5%.
Take `Cc1cnc(Nc2ccc3c(c2)C(C(C)C)=CB(O)O3)nc1N[C@H]1COCC[C@@H]1C#N` (single isomer, unassigned) [Example 039a, (trans)-3-((2-((2-hydroxy-4-isopropyl-2H-benzo[e][1,2]oxaborinin-6-yl)amino)-5-methylpyrimidin-4-yl)amino)tetrahydro-2H-pyran-4-carbonitrile]: the IC50 in data set [1] (Table 3a) was determined as 1.1 nM; in data set [2] (Table 3a) it was 18.9 nM; in data set [4] (setting [8]) it was 265 nM. Also, the “Dog LM QH” value in data set [6] (setting [9]) is reported as 78.4%.
The corresponding values for `Cc1cnc(Nc2cc(Cl)c3c(c2)C(C(C)C)=CB(O)O3)nc1N[C@H]1COCC[C@@H]1C#N` (single isomer, unassigned) [Example 040b, (trans)-3-((2-((8-chloro-2-hydroxy-4-isopropyl-2H-benzo[e][1,2]oxaborinin-6-yl)amino)-5-methylpyrimidin-4-yl)amino)tetrahydro-2H-pyran-4-carbonitrile] are 1.1 nM, 16.7 nM, 1410 nM and 47.4%.
Consider `OB1OCc2cc(Nc3ncc(C(F)(F)F)c(NC4CCCCC4)n3)ccc21` [Example C020], for which the IC50 amounted to 44.1 nM in data set [1] (Table 3b, comparator compounds); 397 nM in data set [2] (Table 3b, comparator compounds); 37.6 nM in data set [3] (Table 3b, comparator compounds). The “Dog LM QH” value in data set [6] (Table 3b, comparator compounds) is on record as under 19.9%.
As to `OB1OCc2cc(Nc3ncc(C(F)(F)F)c(NC4CCCC4)n3)ccc21` [Example C019], the IC50 in data set [1] (Table 3b, comparator compounds) was determined as 29.5 nM; in data set [2] (Table 3b, comparator compounds), 171 nM; in data set [3] (Table 3b, comparator compounds), 275 nM. Also, the “Inhibition PDE4B @ 1 μM” value in data set [3] (Table 3b, comparator compounds) is on record as 90%. In addition, the “Dog LM QH” value in data set [6] (Table 3b, comparator compounds) is given as 73.8%.
Turning to `Cc1cnc(Nc2ccc3c(c2)COB3O)nc1N[C@@H]1CCC[C@H]1C#N` (relative stereo) [Example 001, (trans)-2-((2-((1-hydroxy-1,3-dihydrobenzo[c][1,2]oxaborol-5-yl)amino)-5-methylpyrimidin-4-yl)amino)cyclopentane-1-carbonitrile], the IC50 in data set [1] (Table 3a) amounted to 1.1 nM; in data set [2] (Table 3a) it was 24.7 nM; in data set [3] (Table 3a), 362 nM; in data set [4] (setting [8]), 173 nM. For the same molecule, the “Dog LM QH” value in data set [6] (setting [9]) is 39.7%.
With `CCC(CC)Nc1nc(Nc2ccc3c(c2)COB3O)ncc1Cl` [Example C005], the 50% inhibitory concentration (IC50) in data set [1] (Table 3b, comparator compounds) is 1.1 nM; in data set [2] (Table 3b, comparator compounds), 33.3 nM; in data set [3] (Table 3b, comparator compounds) it was 379 nM; in data set [4] (setting [7]) it was 6120 nM; in data set [5], 2250 nM.
With `Cc1cnc(Nc2cc3c(c(C(F)(F)F)c2)OB(O)C=C3)nc1N[C@@H]1COCC[C@H]1C#N` (relative stereo) [Example 037, (trans)-3-[[2-[[2-hydroxy-8-(trifluoromethyl)-1,2-benzoxaborinin-6-yl]amino]-5-methyl-pyrimidin-4-yl]amino]tetrahydropyran-4-carbonitrile], the IC50 in data set [1] (Table 3a) is 3.1 nM; in data set [2] (Table 3a), 18.5 nM; in data set [4] (setting [8]), 919 nM. In addition, the “Dog LM QH” value in data set [6] (setting [9]) is recorded as 19.9%.
Turning to `OB1OCc2cc(Nc3ncc(Cl)c(NC4CCCC4)n3)cc(F)c21` [Example C015], the IC50 in data set [1] (Table 3b, comparator compounds) was determined as 0.8 nM; in data set [2] (Table 3b, comparator compounds) it was 26.5 nM; in data set [3] (Table 3b, comparator compounds), 85.7 nM. The “Dog LM QH” value in data set [6] (Table 3b, comparator compounds) was 67.2%.
Turning to `N#C[C@@H]1CCC[C@H]1Nc1nc(Nc2ccc3c(c2)COB3O)ncc1Cl` (relative stereo) [Example 005, (trans)-2-[[5-chloro-2-[(1-hydroxy-3H-2,1-benzoxaborol-5-yl)amino]pyrimidin-4-yl]amino]cyclopentane-1-carbonitrile], the IC50 in data set [1] (Table 3a) was 0.5 nM; in data set [2] (Table 3a), 9 nM; in data set [3] (Table 3a) it was 44.5 nM. Moreover, the “Dog LM QH” value in data set [6] (setting [9]) is under 19.9%.
As to `OB1OCc2cc(Nc3nccc(NC4CCCCC4)n3)ccc21` [Example C010], the IC50 in data set [1] (Table 3b, comparator compounds) worked out at 48 nM; in data set [2] (Table 3b, comparator compounds) it was 364 nM; in data set [3] (Table 3b, comparator compounds), 956 nM. In addition, the “Inhibition PDE4B @ 1 μM” value in data set [3] (Table 3b, comparator compounds) worked out at 53%.
Consider `Cc1cnc(Nc2cc3c(c(C(F)(F)F)c2)B(O)OC3)nc1N[C@@H]1CCC[C@H]1C#N` (relative stereo) [Example 006, (trans)2-[[2-[[1-hydroxy-7-(trifluoromethyl)-3H-2,1-benzoxaborol-5-yl]amino]-5-methyl-pyrimidin-4-yl]amino]cyclopentanecarbonitrile], for which the results for the IC50 in data set [1] (Table 3a), in data set [2] (Table 3a) and in data set [4] (setting [8]) were 1 nM, 36.6 nM and 202 nM, respectively. For the same molecule, the “Dog LM QH” value in data set [6] (setting [9]) is on record as under 19.9%.
Consider `Cc1cnc(Nc2cc(Cl)c3c(c2)COB3O)nc1N[C@@H]1CCC[C@H]1C#N` (single isomer, unassigned) [Example 003b, (trans)-2-((2-((7-chloro-1-hydroxy-1,3-dihydrobenzo[c][1,2]oxaborol-5-yl)amino)-5-methylpyrimidin-4-yl)amino)cyclopentane-1-carbonitrile], for which the IC50 is 5 nM in data set [1] (Table 3a); 83.1 nM in data set [2] (Table 3a); 74.8 nM in data set [4] (read-out: IC50 IL-4, Table 3a). Further, the “Dog LM QH” value in data set [6] (setting [9]) was under 19.9%.
For `OB1OCc2cc(Nc3ncc(Cl)c(NC4CCCCC4)n3)ccc21` [Example C018], the IC50 in data set [2] (Table 3b, comparator compounds) amounted to 118 nM; in data set [3] (Table 3b, comparator compounds) it was 108 nM. In data set [6] (Table 3b, comparator compounds), the “Dog LM QH” value is 56.0%.
As for `N#C[C@@H]1CCOC[C@H]1Nc1nc(Nc2cc(Cl)c3c(c2)COB3O)ncc1C(F)(F)F` (relative stereo) [Example 049, (trans)-3-((2-((7-chloro-1-hydroxy-1,3-dihydrobenzo[c][1,2]oxaborol-5-yl)amino)-5-(trifluoromethyl)pyrimidin-4-yl)amino)tetrahydro-2H-pyran-4-carbonitrile], the IC50 in data set [1] (Table 3a) is 8.2 nM; in data set [2] (Table 3a), 13.3 nM; in data set [3] (Table 3a), 362 nM; in data set [4] (setting [8]), 173 nM. For the same molecule, the “Dog LM QH” value in data set [6] (setting [9]) is on record as 39.7%.
As for `Cc1cnc(Nc2ccc3c(c2)C=CB(O)O3)nc1N[C@@H]1COCC[C@H]1C#N` (relative stereo) [Example 035, (trans)-3-[[2-[(2-hydroxy-1,2-benzoxaborinin-6-yl)amino]-5-methyl-pyrimidin-4-yl]amino]tetrahydropyran-4-carbonitrile], the results for the IC50 in data set [1] (Table 3a), in data set [2] (Table 3a) and in data set [3] (Table 3a) were 0.7 nM, 8.8 nM and 320 nM, respectively. In data set [6] (setting [9]), the “Dog LM QH” value is recorded as 43.7%.
As for `Cc1cnc(Nc2cc(Cl)c3c(c2)COB3O)nc1NC1CCCCC1` [Example C012], the IC50 stood at 0.1 nM in data set [1] (Table 3b, comparator compounds); 6.5 nM in data set [2] (Table 3b, comparator compounds); 224 nM in data set [4] (setting [7]); 1780 nM in data set [5]. Moreover, in data set [6] (Table 3b, comparator compounds), the “Dog LM QH” value was under 19.9%.
